# Experimental data as given in patent US20250171462A1 (NICO Therapeutics, Inc., priority 2022, published 2025).
# Where two headings read alike, the source gives them in different places.
# Molecular target: T1, full-length SARM1 (FL-SARM1) (Homo sapiens, UniProt Q6SZW1)
# T1 sequence (Q6SZW1 28-724): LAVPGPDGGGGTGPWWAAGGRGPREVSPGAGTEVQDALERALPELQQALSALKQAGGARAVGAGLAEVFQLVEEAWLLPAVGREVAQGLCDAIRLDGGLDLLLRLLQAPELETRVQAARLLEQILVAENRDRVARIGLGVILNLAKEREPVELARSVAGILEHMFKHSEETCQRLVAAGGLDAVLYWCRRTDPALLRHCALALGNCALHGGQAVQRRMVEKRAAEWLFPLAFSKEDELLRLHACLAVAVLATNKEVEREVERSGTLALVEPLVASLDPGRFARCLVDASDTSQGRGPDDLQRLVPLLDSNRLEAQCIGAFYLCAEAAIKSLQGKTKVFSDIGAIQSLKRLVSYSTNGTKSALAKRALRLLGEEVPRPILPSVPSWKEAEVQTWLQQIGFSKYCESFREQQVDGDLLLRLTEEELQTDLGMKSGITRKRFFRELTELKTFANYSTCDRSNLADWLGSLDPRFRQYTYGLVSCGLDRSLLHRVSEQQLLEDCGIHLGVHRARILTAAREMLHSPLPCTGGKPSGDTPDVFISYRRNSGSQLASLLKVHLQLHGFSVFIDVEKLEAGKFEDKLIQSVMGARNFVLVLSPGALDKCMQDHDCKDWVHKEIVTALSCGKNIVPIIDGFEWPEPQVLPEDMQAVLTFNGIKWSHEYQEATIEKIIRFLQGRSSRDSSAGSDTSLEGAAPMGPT
# Test: FL-SARM1 cellular lysate assay (NAD/NADH-Glo detection of remaining NAD+, NMN-activated)
# [1] = Activity (IC50 class), 11 point curve
# [2] = Activity (μM) (IC50), 11 point curve
# [3] = read-out: Activity (IC50 class), 11 point curve
# Description: Preparation of full-length SARM1 (FL-SARM1) lysate: HEK293T cells (ATCC: CRL-3216) were grown on 150 mm TC-treated dishes to 80-90% confluency in complete DMEM (DMEM (Thermo Fisher: 11965175) supplemented with 10% HI—FBS (VWR: 10802-772), 1× Pen/Strep (Thermo Fisher: 15140122), 1×NEAA (Thermo Fisher: 1140050), 1× glutamax (Thermo Fisher: 35050061), and 1 mM sodium pyruvate (Thermo Fisher: 11360070)) at 37° C. and 5% CO2. One hour prior to transfection, the media was replaced with fresh, 37° C. complete DMEM (20 mL per one 150 mm dish) supplemented with additional 10 mM glucose (Alfa Aesar AAJ60067EQE). Per one 150 mm dish, 30 μg FL-SARM1 (SEQ. ID. 1; cloned in-house) plasmid was dissolved in 1 mL DMEM at ambient temperature and were mixed by inverting the tube 8-10 times. 90 μL of GenJet™ in vitro DNA transfection reagent (Ver2) was dissolved in 1 mL DMEM at ambient temperature and were mixed by inverting the tube 8-10 times. The plasmid and transfection agent solutions were combined, mixed by 8-10 inversions and incubated for 10 minutes at ambient temperature. 2 mL of this transfection mixture was added to each dish containing HEK293T cells as prepared above followed by a gentle mixing of 4-5 horizontal rotations. The dishes were incubated at 37° C. and 5% CO2 for 24 h. The dishes were removed from the incubator, the medium was aspirated and the cells were scraped off using cell scrapers in ice-cold 1×PBS (5 mL/dish, Thermo Fisher Scientific 10010023). The collected cells were centrifuged at 300 g for 5 minutes at 4° C. The supernatant was aspirated and the pellet was frozen at −80° C. until needed. The cell pellet from 30 dishes was dissolved in 30 mL 1×PBS supplemented with 4 tablets of Complete, Mini EDTA-free protease inhibitor cocktail at 4° C. This mixture was sonicated on ice for 10 minutes at 50% amplitude with a 1 second on/1 second off interval using a Model 120 sonicator (Thermo Fisher Scientific, FB120110). The lysate was centrifuged at 16000 g for 10 minutes at 4° C.
# To a white 384-well Proxiplate (PerkinElmer, PE-6008280) was added 50 nL/well of a DMSO solution containing test compounds followed by 7.5 μL/well of a 0.067 mg/mL solution of SARMi cellular lysate in reaction buffer (DPBS containing CHAPSO (0.1%) and fatty acid free BSA (0.032%)). The plate was centrifuged for 1 minute at 1000 RPM and then placed in an incubator at 23° C. for 15 minutes. To the wells were added 2.5 μL/well of a solution containing 40 M NAD^+ and 4 mM nicotinamide mononucleotide (NMN) in reaction buffer. The plate was centrifuged for 1 min at 1000 RPM, the plate was sealed and placed in an incubator at 23° C. for 3.5 hours before adding 3.5 μL/well of NAD/NADH-Glo™ solution (preparation as described by Promega using the extended detection protocol). The plate was centrifuged for 1 minute at 1000 RPM and then incubated at 23° C. for 20 minutes. 1 μL/well of a 3.625 mM solution of menadione in DMSO was added and the plate was centrifuged for 1 minute at 1000 RPM. Relative light units (RLU) were recorded using an Envision plate reader at a height of 6.5 mm.
# IC50 values were calculated from an 11 point curve using ½ log dilutions using a four-parameter logistic regression curve fit.
smiles,measurement,setting,value
"Cc1cc(C)c(-c2ccccn2)cc1NC(=O)N1C2CCCC1C2 [Example 76, N-(2,4-dimethyl-5-(pyridin-2-yl)phenyl)-6-azabicyclo[3.1.1]heptane-6-carboxamide]",IC50,[1],1 to 10 µM
same,IC50,[2],6.8 µM
"Cc1c(Cl)cc(NC(=O)N2C3CCCC2C3)cc1-c1ccccn1 [Example 77, N-(3-chloro-4-methyl-5-(pyridin-2-yl)phenyl)-6-azabicyclo[3.1.1]heptane-6-carboxamide]",IC50,[2],0.8 µM
same,IC50,[3],0.0001 to 1 µM
"Cc1c(Br)cc(NC(=O)N2C3CCCC2C3)cc1-c1ccccn1 [Example 78, N-(3-bromo-4-methyl-5-(pyridin-2-yl)phenyl)-6-azabicyclo[3.1.1]heptane-6-carboxamide]",IC50,[2],0.7 µM
same,IC50,[3],0.0001 to 1 µM
"CCO[C@H]1CC2C[C@H](C1)N2C(=O)Nc1ccc(C)c(-c2ccccn2)c1 [Example 79, trans-3-ethoxy-N-(4-methyl-3-(pyridin-2-yl)phenyl)-6-azabicyclo[3.1.1]heptane-6-carboxamide]",IC50,[1],1 to 10 µM
same,IC50,[2],2.8 µM
"Cc1ccc(NC(=O)N2C3CC2c2ncnn2C3)cc1-c1ccccn1 (centres unmarked) [Example 80, N-(4-methyl-3-pyridin-2-ylphenyl)-3,5,6,9-tetrazatricyclo[6.1.1.02,6]deca-2,4-diene-9-carboxamide]",IC50,[1],> 10 µM
same,IC50,[2],13 µM
"Cc1cc(F)cnc1-c1cccc(NC(=O)N2C3CCCC2C3)c1 [Example 81, N-[3-(5-fluoro-3-methylpyridin-2-yl)phenyl]-6-azabicyclo[3.1.1]heptane-6-carboxamide]",IC50,[1],1 to 10 µM
same,IC50,[2],3.4 µM
"Cc1cc(Cl)c(NC(=O)N2C3CCCC2C3)cc1-c1ccccn1 [Example 82, N-(2-chloro-4-methyl-5-pyridin-2-ylphenyl)-6-azabicyclo[3.1.1]heptane-6-carboxamide]",IC50,[1],1 to 10 µM
same,IC50,[2],1.5 µM
"Cc1c(C#N)cc(NC(=O)N2C3CCCC2C3)cc1-c1ccccn1 [Example 83, N-(3-cyano-4-methyl-5-pyridin-2-ylphenyl)-6-azabicyclo[3.1.1]heptane-6-carboxamide]",IC50,[1],> 10 µM
same,IC50,[2],35 µM
"CCO[C@@H]1CC2C[C@H](C1)N2C(=O)Nc1ccc(C)c(-c2ccccn2)c1 [Example 84, cis-3-ethoxy-N-(4-methyl-3-(pyridin-2-yl)phenyl)-6-azabicyclo[3.1.1]heptane-6-carboxamide]",IC50,[1],1 to 10 µM
same,IC50,[2],1.6 µM
"Cc1ccc(NC(=O)N2C3CC2CN(c2ccn(C)n2)C3)cc1-c1ccccn1 [Example 85, 3-(1-methylpyrazol-3-yl)-N-(4-methyl-3-pyridin-2-ylphenyl)-3,6-diazabicyclo[3.1.1]heptane-6-carboxamide]",IC50,[1],> 10 µM
same,IC50,[2],23 µM
"Cc1ccc(NC(=O)N2CC3CC3(c3ccccc3)C2)cc1-c1ccccn1 (centres unmarked) [Example 94, N-(4-methyl-3-pyridin-2-ylphenyl)-1-phenyl-3-azabicyclo[3.1.0]hexane-3-carboxamide]",IC50,[1],> 10 µM
same,IC50,[2],15 µM
"Cc1ccc(NC(=O)N2CCC[C@@H]2c2ccccc2)cc1-c1ccccn1 [Example 95, (2R)-N-(4-methyl-3-pyridin-2-ylphenyl)-2-phenylpyrrolidine-1-carboxamide]",IC50,[1],1 to 10 µM
same,IC50,[2],1.4 µM
"Cc1ccc(NC(=O)N2CCC[C@H]2c2ccccc2)cc1-c1ccccn1 [Example 96, (2S)-N-(4-methyl-3-pyridin-2-ylphenyl)-2-phenylpyrrolidine-1-carboxamide]",IC50,[2],0.7 µM
same,IC50,[3],0.0001 to 1 µM
"Cc1ccc(NC(=O)N2CC3CC3(C(F)(F)F)C2)cc1-c1ccccn1 (centres unmarked) [Example 97, N-(4-methyl-3-pyridin-2-ylphenyl)-1-(trifluoromethyl)-3-azabicyclo[3.1.0]hexane-3-carboxamide]",IC50,[1],> 10 µM
same,IC50,[2],11 µM
"Cc1ccc(NC(=O)N2CCCC3CC32)cc1-c1ccccn1 (centres unmarked) [Example 99, N-(4-methyl-3-pyridin-2-ylphenyl)-2-azabicyclo[4.1.0]heptane-2-carboxamide]",IC50,[1],> 10 µM
same,IC50,[2],18 µM
"Cc1ccc(NC(=O)N2C3CCC2c2ncccc23)cc1-c1ccccn1 (centres unmarked) [Example 100, N-(4-methyl-3-pyridin-2-ylphenyl)-3,11-diazatricyclo[6.2.1.02,7]undeca-2,4,6-triene-11-carboxamide]",IC50,[2],0.6 µM
same,IC50,[3],0.0001 to 1 µM
"Cc1ccc(NC(=O)N2CCc3ccccc3C2)cc1-c1ccccn1 [Example 101, N-(4-methyl-3-pyridin-2-ylphenyl)-3,4-dihydro-1H-isoquinoline-2-carboxamide]",IC50,[1],1 to 10 µM
same,IC50,[2],10 µM
"Cc1ccc(NC(=O)N2CCOc3ccccc3C2)cc1-c1ccccn1 [Example 102, N-(4-methyl-3-pyridin-2-ylphenyl)-3,5-dihydro-2H-1,4-benzoxazepine-4-carboxamide]",IC50,[2],0.9 µM
same,IC50,[3],0.0001 to 1 µM
"Cc1ccc(NC(=O)C2C3CCC2CC3)cc1-c1cccnn1 (centres unmarked) [Example 103, N-(4-methyl-3-pyridazin-3-ylphenyl)bicyclo[2.2.1]heptane-7-carboxamide]",IC50,[2],0.5 µM
same,IC50,[3],0.0001 to 1 µM
"Cc1ccc(NC(=O)C2C3CCC2CC3)cc1-c1ncccn1 (centres unmarked) [Example 106, N-(4-methyl-3-pyrimidin-2-ylphenyl)bicyclo[2.2.1]heptane-7-carboxamide]",IC50,[1],1 to 10 µM
same,IC50,[2],1 µM
"Cc1ccc(NC(=O)C2CCC2C)cc1-c1ccccn1 (centres unmarked) [Example 112, 2-methyl-N-(4-methyl-3-pyridin-2-ylphenyl)cyclobutane-1-carboxamide]",IC50,[1],1 to 10 µM
same,IC50,[2],1.7 µM
"Cc1ccc(NC(=O)C2CCCC2C)cc1-c1ccccn1 (centres unmarked) [Example 114, 2-methyl-N-(4-methyl-3-pyridin-2-ylphenyl)cyclopentane-1-carboxamide]",IC50,[2],0.7 µM
same,IC50,[3],0.0001 to 1 µM
"Cc1ccc(NC(=O)C2(O)CCCC2)cc1-c1ccccn1 [Example 115, 1-hydroxy-N-(4-methyl-3-pyridin-2-ylphenyl)cyclopentane-1-carboxamide]",IC50,[1],> 10 µM
same,IC50,[2],36 µM
"Cc1ccc(NC(=O)C2C[C@H]3C[C@@H]23)cc1-c1ccccn1 (stereo partly drawn) [Example 117, cis-N-(4-methyl-3-pyridin-2-ylphenyl)bicyclo[2.1.0]pentane-2-carboxamide]",IC50,[1],1 to 10 µM
same,IC50,[2],4.6 µM
"Cc1ccc(NC(=O)C2CC3(CC3)C2)cc1-c1ccccn1 [Example 119, N-(4-methyl-3-pyridin-2-ylphenyl)spiro[2.3]hexane-5-carboxamide]",IC50,[1],1 to 10 µM
same,IC50,[2],1.9 µM
"Cc1ccc(NC(=O)C2C3CCC2C3)cc1-c1ccccn1 (centres unmarked) [Example 123, N-(4-methyl-3-pyridin-2-ylphenyl)bicyclo[2.1.1]hexane-5-carboxamide]",IC50,[2],0.3 µM
same,IC50,[3],0.0001 to 1 µM
"O=C(Nc1ccc(C(F)(F)F)c(-c2ccc(F)cn2)c1)[C@@H]1CC1(F)F [Example 125, (1S)-2,2-difluoro-N-[3-(5-fluoropyridin-2-yl)-4-(trifluoromethyl)phenyl]cyclopro-pane-1-carboxamide]",IC50,[1],1 to 10 µM
same,IC50,[2],3.5 µM
"O=C(Nc1ccc(C(F)F)c(-c2ccccn2)c1)[C@@H]1CC1(F)F [Example 126, (1S)-N-[4-(difluoromethyl)-3-pyridin-2-ylphenyl]-2,2-difluorocyclopropane-1-carboxamide]",IC50,[1],1 to 10 µM
same,IC50,[2],2.5 µM
"C[C@H]1CC1c1ccc(NC(=O)[C@@H]2CC2(F)F)cc1-c1ccccn1 (stereo partly drawn) [Example 127, (1S)-2,2-difluoro-N-[4-[trans-2-methylcyclopropyl]-3-pyridin-2-ylphenyl]cyclopropane-1-carboxamide]",IC50,[1],1 to 10 µM
same,IC50,[2],5.6 µM
"Cc1ccc(NC(=O)C23CC(C(F)(F)F)(C2)C3)cc1-c1ccccn1 [Example 129, N-(4-methyl-3-pyridin-2-ylphenyl)-3-(trifluoromethyl)bicyclo[1.1.1] pentane-1-carboxamide]",IC50,[1],1 to 10 µM
same,IC50,[2],9.1 µM
"O=C(Nc1cccc(-c2ccccn2)c1)[C@@H]1CC1(F)F [Example 131, (1S)-2,2-difluoro-N-(3-pyridin-2-ylphenyl)cyclopropane-1-carboxamide]",IC50,[1],> 10 µM
same,IC50,[2],18 µM
"Cc1ccc(NC(=O)C2CN(CC(F)(F)F)C2)cc1-c1ccccn1 [Example 132, N-(4-methyl-3-pyridin-2-ylphenyl)-1-(2,2,2-trifluoroethyl)azetidine-3-carboxamide]",IC50,[1],> 10 µM
same,IC50,[2],43 µM
"CC1(c2ccc(NC(=O)[C@@H]3CC3(F)F)cc2-c2ccccn2)CC1 [Example 133, (1S)-2,2-difluoro-N-[4-(1-methylcyclopropyl)-3-pyridin-2-ylphenyl]cyclopropane-1-carboxamide]",IC50,[1],> 10 µM
same,IC50,[2],24 µM
"Cc1ccc(NC(=O)CN2C(=O)CCOc3ccccc32)cc1-c1ccccn1 [Example 134, N-(4-methyl-3-pyridin-2-ylphenyl)-2-(4-oxo-2,3-dihydro-1,5-benzoxazepin-5-yl)acetamide]",IC50,[1],1 to 10 µM
same,IC50,[2],1.9 µM
